Reference: article doi:[…]/2021.10.07.463234v2 (biorxiv, 2021)
Counter-ions that a name gives are not always drawn.

Molecular target: SARS-CoV-2 Mac1 (Severe acute respiratory syndrome coronavirus 2, UniProt P0DTD1)
Experiment: biochemical
Conditions: for inhibition at 100 µM: read-out: %inhibition; for %inhibition: 100 µM, inhibitor

| Structure (SMILES) | inhibition at 100 µM [%] | %inhibition [%] |
| --- | --- | --- |
| Nc1ccc(C(=O)NCC(=O)O)cc1 [Sodium 4-aminohippurate Hydrate] | 0 | – |
| O=C(O)[C@H]1O[C@H](O)[C@H](O)[C@@H](O)[C@@H]1O [Sodium Gluconate] | 0 | – |
| O=C(O)CCCc1ccccc1 [Sodium Phenylbutyrate] | 6.6 | – |
| O=S(=O)(O)Oc1ccc(C(c2ccc(OS(=O)(=O)O)cc2)c2ccccn2)cc1 [Sodium Picosulfate] | 1.51 | – |
| O=C1O[C@H]([C@@H](O)CO)C(O)=C1O [Sodium ascorbate] | – | 0 |
| O=C(O)c1ccccc1 [Sodium benzoate] | – | 0 |
| CCCC(=O)O [Sodium butyrate] | 0 | – |
| O=C(O)O [Sodium carbonate] | 0.406 | – |
| Cc1cc(S(=O)(=O)O)c2c(C)ccc(C(C)C)cc1-2 [Sodium gualenate] | 12.6 | – |
| O=C(O)c1ccccc1O [Sodium salicylate] | – | 0 |
| O=C(O)CCC(=O)O [Sodium succinate] | 0 | – |
| Nc1ccc(S(=O)(=O)Nc2ncccn2)cc1 [Sodium sulfadiazine] | – | 0 |
| CC(C)=CCOc1ccc(/C=C/C(=O)c2ccc(OCC=C(C)C)cc2OCC(=O)O)cc1 [Sofalcone] | 14.1 | – |
| CC(C)OC(=O)[C@H](C)N[P@](=O)(OC[C@H]1O[C@@H](n2ccc(=O)[nH]c2=O)[C@](C)(F)[C@@H]1O)Oc1ccccc1 [Sofosbuvir (PSI-7977, GS-7977)] | 42.9 | – |
| Cc1c(C(=O)Nc2ccc(N3C[C@@H](C)O[C@@H](C)C3)nc2)cccc1-c1ccc(OC(F)(F)F)cc1 [Sonidegib (Erismodegib, NVP-LDE225)] | 0 | – |
| CNC(=O)c1cc(Oc2ccc(NC(=O)Nc3ccc(Cl)c(C(F)(F)F)c3)cc2)ccn1 [Sorafenib Tosylate] | – | 10.76 |
| CNC(=O)c1cc(Oc2ccc(NC(=O)Nc3ccc(Cl)c(C(F)(F)F)c3)cc2)ccn1 [Sorafenib] | 15.7 | – |
| OC[C@@H](O)[C@@H](O)[C@H](O)[C@@H](O)CO [Sorbitol] | 0 | – |
| CCOc1ccc(Cc2cc([C@@H]3O[C@H](SC)[C@@H](O)[C@H](O)[C@H]3O)ccc2Cl)cc1 [Sotagliflozin (LX4211)] | 0 | – |
| CC(C)NCC(O)c1ccc(NS(C)(=O)=O)cc1 (stereo not drawn) [Sotalol HCl] | 0 | – |
| CN1CCN(c2nc(C3=C(c4c[nH]c5ccccc45)C(=O)NC3=O)c3ccccc3n2)CC1 [Sotrastaurin] | 34.7 | – |

| Structure (SMILES) | inhibition at 100 µM [%] | %inhibition [%] |
| --- | --- | --- |
| C[C@@H]1CN(c2c(F)c(N)c3c(=O)c(C(=O)O)cn(C4CC4)c3c2F)C[C@H](C)N1 [Sparfloxacin] | 25.5 | – |
| CN[C@@H]1[C@H](O)[C@H](NC)[C@H]2O[C@@]3(O)C(=O)C[C@@H](C)O[C@H]3O[C@@H]2[C@H]1O [Spectinomycin 2HCl] | 11.7 | – |
| CC(=O)S[C@@H]1CC2=CC(=O)CC[C@]2(C)[C@H]2CC[C@@]3(C)[C@@H](CC[C@@]34CCC(=O)O4)[C@H]12 [Spironolactone] | 6.62 | – |
| Cc1cn([C@H]2C=C[C@@H](CO)O2)c(=O)[nH]c1=O [Stavudine (d4T)] | 0 | – |
| CCCCCCCCCCCCCCCCCC(=O)O [Stearic acid] | 6.72 | – |
| CC(C)(C)C(O)/C=C/c1ccc2c(c1)OCO2 (stereo not drawn) [Stiripentol] | 12.5 | – |
| CN[C@@H]1[C@H](O[C@H]2[C@H](O[C@H]3[C@H](O)[C@@H](O)[C@H](N=C(N)N)[C@@H](O)[C@@H]3N=C(N)N)O[C@@H](C)[C@]2(O)C=O)O[C@@H](CO)[C@H](O)[C@H]1O [Streptomycin sulfate] | 0 | – |
| C[N+](C)(C)CCOC(=O)CCC(=O)OCC[N+](C)(C)C [Succinylcholine Chloride Dihydrate] | 0 | – |
| O=C(O)CCC(=O)Nc1ccc(S(=O)(=O)Nc2nccs2)cc1 [Succinylsulfathiazole] | 0 | – |
| CC1(C)[C@H](C(=O)O)N2C(=O)C[C@H]2S1(=O)=O [Sulbactam sodium] | 16.4 | – |
| CC1(C)[C@H](C(=O)O)N2C(=O)C[C@H]2S1(=O)=O [Sulbactam] | – | 20.75 |
| Nc1ccc(S(=O)(=O)NC(=O)c2ccccc2)cc1 [Sulfabenzamide] | 0 | – |
| CC(=O)NS(=O)(=O)c1ccc(N)cc1 [Sulfacetamide Sodium] | – | 3.132 |
| CC(=O)NS(=O)(=O)c1ccc(N)cc1 [Sulfacetamide sodium salt hydrate] | – | 8.356 |
| CC(=O)NS(=O)(=O)c1ccc(N)cc1 [Sulfacetamide] | – | 27.01 |
| Nc1ccc(S(=O)(=O)Nc2ncccn2)cc1 [Sulfadiazine] | – | 29.9 |
| COc1ncnc(NS(=O)(=O)c2ccc(N)cc2)c1OC [Sulfadoxine] | 0 | – |
| N=C(N)NS(=O)(=O)c1ccc(N)cc1 [Sulfaguanidine] | 8.72 | – |
| COc1nccnc1NS(=O)(=O)c1ccc(N)cc1 [Sulfalene(SMPZ)] | 5.42 | – |
| Nc1ccc(S(=O)(=O)Nc2cncc(Cl)n2)cc1 [Sulfalozine sodium] | 0 | – |
| Cc1ccnc(NS(=O)(=O)c2ccc(N)cc2)n1 [Sulfamerazine] | 0 | – |

| Structure (SMILES) | inhibition at 100 µM [%] | %inhibition [%] |
| --- | --- | --- |
| COc1cnc(NS(=O)(=O)c2ccc(N)cc2)nc1 [Sulfameter] | 0 | – |
| Cc1cc(C)nc(NS(=O)(=O)c2ccc(N)cc2)n1 [Sulfamethazine Sodium Salt] | – | 12.6 |
| Cc1cc(C)nc(NS(=O)(=O)c2ccc(N)cc2)n1 [Sulfamethazine] | – | 0 |
| Cc1nnc(NS(=O)(=O)c2ccc(N)cc2)s1 [Sulfamethizole] | 15.9 | – |
| Cc1cc(NS(=O)(=O)c2ccc(N)cc2)no1 [Sulfamethoxazole sodium] | – | 0 |
| Cc1cc(NS(=O)(=O)c2ccc(N)cc2)no1 [Sulfamethoxazole] | – | 24.84 |
| COc1ccc(NS(=O)(=O)c2ccc(N)cc2)nn1 [Sulfamethoxypyridazine] | 4.31 | – |
| Nc1ccc(S(N)(=O)=O)cc1 [Sulfanilamide] | 19.9 | – |
| Nc1ccc(S(=O)(=O)Nc2ccnn2-c2ccccc2)cc1 [Sulfaphenazole] | 0 | – |
| Nc1ccc(S(=O)(=O)Nc2ccccn2)cc1 [Sulfapyridine] | 10.7 | – |
| O=C(O)c1cc(/N=N/c2ccc(S(=O)(=O)Nc3ccccn3)cc2)ccc1O [Sulfasalazine] | 0 | – |
| Nc1ccc(S(=O)(=O)Nc2nccs2)cc1 [Sulfathiazole] | 5.37 | – |
| Cc1noc(NS(=O)(=O)c2ccc(N)cc2)c1C [Sulfisoxazole] | 20.4 | – |
| COc1cc(S(=O)(=O)O)ccc1O [Sulfogaiacol] | 0 | – |
| CC1=C(CC(=O)O)c2cc(F)ccc2/C1=C\c1ccc([S+](C)[O-])cc1 (stereo not drawn) [Sulindac] | 4.16 | – |
| COc1cc(O)c(C(=O)c2ccccc2)cc1S(=O)(=O)O [Sulisobenzone] | 4.13 | – |
| COc1cc(NS(=O)(=O)c2ccc(N)cc2)nc(OC)n1 [Sulphadimethoxine] | 0 | – |
| CCN1CCCC1CNC(=O)c1cc(S(N)(=O)=O)ccc1OC (stereo not drawn) [Sulpiride] | 0 | – |
| CC1(C)S[C@@H]2[C@H](NC(=O)[C@H](N)c3ccccc3)C(=O)N2[C@H]1C(=O)OCOC(=O)[C@@H]1N2C(=O)C[C@H]2S(=O)(=O)C1(C)C [Sultamicillin] | 8.63 | – |
| CCN(CC)CCNC(=O)c1c(C)[nH]c(/C=C2\C(=O)Nc3ccc(F)cc32)c1C [Sunitinib Malate] | 16.2 | – |
| CCN(CC)CCNC(=O)c1c(C)[nH]c(/C=C2\C(=O)Nc3ccc(F)cc32)c1C [Sunitinib] | – | 31.86 |

| Structure (SMILES) | inhibition at 100 µM [%] | %inhibition [%] |
| --- | --- | --- |
| CC(C(=O)O)c1ccc(C(=O)c2cccs2)cc1 (stereo not drawn) [Suprofen] | 18 | – |
| CNC(=O)c1ccc2cc([C@@]3(O)CCn4cncc43)ccc2c1 [TAK-700 (Orteronel)] | 0 | – |
| Nc1c2c(nc3ccccc13)CCCC2 [Tacrine HCl] | – | 0.07061 |
| Nc1c2c(nc3ccccc13)CCCC2 [Tacrine hydrochloride hydrate] | – | 12.09 |
| C=CC[C@@H]1/C=C(\C)C[C@H](C)C[C@H](OC)[C@H]2O[C@@](O)(C(=O)C(=O)N3CCCC[C@H]3C(=O)O[C@H](/C(C)=C/[C@@H]3CC[C@@H](O)[C@H](OC)C3)[C@H](C)[C@@H](O)CC1=O)[C@H](C)C[C@@H]2OC [Tacrolimus (FK506)] | 29.6 | – |
| CN1CC(=O)N2[C@H](c3ccc4c(c3)OCO4)c3[nH]c4ccccc4c3C[C@@H]2C1=O [Tadalafil] | 20.7 | – |
| CC(C)OC(=O)CCC/C=C\C[C@@H]1[C@@H](/C=C/C(F)(F)COc2ccccc2)[C@H](O)C[C@@H]1O [Tafluprost] | 4.8 | – |
| CC1(C)CCC(C)(C)c2cc(NC(=O)c3ccc(C(=O)O)cc3)ccc21 [Tamibarotene] | 1.99 | – |
| CCOc1ccccc1OCCN[C@H](C)Cc1ccc(OC)c(S(N)(=O)=O)c1 [Tamsulosin hydrochloride] | 0 | – |
| C=CCNC1=C2C[C@@H](C)C[C@H](OC)[C@H](O)[C@@H](C)/C=C(\C)[C@H](OC(N)=O)[C@@H](OC)/C=C\C=C(/C)C(=O)NC(=CC1=O)C2=O [Tanespimycin (17-AAG)] | 3.81 | – |
| CCC(=O)NC[C@@H]1C[C@H]1c1cccc2c1CCO2 [Tasimelteon] | 0 | – |
| O=C(NS(=O)(=O)c1ccc(Br)s1)c1ccc(Cl)cc1Cl [Tasisulam] | 0 | – |
| NCCS(=O)(=O)O [Taurine] | 0 | – |
| OB1OCc2cc(F)ccc21 [Tavaborole (AN-2690)] | 0.84 | – |
| CCOC(=O)c1ccc(C#Cc2ccc3c(c2)C(C)(C)CCS3)nc1 [Tazarotene] | 0 | – |
| C[C@]1(Cn2ccnn2)[C@H](C(=O)O)N2C(=O)C[C@H]2S1(=O)=O [Tazobactam] | 6.81 | – |
| C[C@@H](O)[C@H]1C(=O)N2C(C(=O)OCOC(=O)C(C)(C)C)=C(SC3CN(C4=NCCS4)C3)[C@H](C)[C@H]12 [Tebipenem Pivoxil] | 1.32 | – |
| Cn1nnc(-c2ccc(-c3ccc(N4C[C@H](COP(=O)(O)O)OC4=O)cc3F)cn2)n1 [Tedizolid Phosphate] | 0 | – |
